Like-named read-outs stand apart in the source and are kept apart here.

Data on eight compounds can be found in publication PMC9088669 (Journal of Medical Virology, 2022).

Series [1] concerns SARS‐CoV‐2. Particulars: previously found; cited from earlier work.
The test system of series [2] is SARS‐CoV‐2/FFM1. The series can be described thus: microbe, parasite or virus in culture. Particulars: Severe acute respiratory syndrome coronavirus 2, Caco-2, 48 h, read-out: EC50 visual CPE.
The subject of series [3] is SARS‐CoV‐2/FFM1.
In series [4] the test system is SARS‐CoV‐2. The settings on record: read-out: EC50 reported in previous studies (range); cited from earlier work.

As for `CCN(CC)CCCC(C)Nc1ccnc2cc(Cl)ccc12` (stereo not shown) [Chloroquine], in the series with SARS‐CoV‐2 [1], the “activity in SARS‐CoV‐2–infected Caco‐2 cells” value was “inactive”.

As a reminder, the EC50 is the concentration giving half of the maximal effect. As for `COc1cccc2c1C(=O)c1c(O)c3c(c(O)c1C2=O)C[C@@](O)(C(=O)CO)C[C@@H]3O[C@H]1C[C@H](N)[C@H](O)[C@H](C)O1` [Doxorubicin], the EC50 with SARS‐CoV‐2/FFM1 [2] was 12 µM.

With `CCN(CCO)CCCC(C)Nc1ccnc2cc(Cl)ccc12` (stereo not shown) [Hydroxychloroquine], in the series on SARS‐CoV‐2 [1], the “activity in SARS‐CoV‐2–infected Caco‐2 cells” value is “inactive”.

For `CCC(C)n1ncn(-c2ccc(N3CCN(c4ccc(OCC5COC(Cn6cncn6)(c6ccc(Cl)cc6Cl)O5)cc4)CC3)cc2)c1=O` (stereo not shown) [Itraconazole], the EC50 with SARS‐CoV‐2/FFM1 [2] came out at 1.6 µM.

As to `Cc1c(O)cccc1C(=O)N[C@@H](CSc1ccccc1)[C@H](O)CN1C[C@H]2CCCC[C@H]2C[C@H]1C(=O)NC(C)(C)C` [Nelfinavir], the half-maximal effective concentration (EC50) in the series with SARS‐CoV‐2/FFM1 [2] was determined as 8.1 µM.

Consider `O=C(NC1CN2CCC1CC2)c1cc(Cl)cc2c1OC1CCCCC21` (stereo not shown) [RG‐12915], for which the EC50 in the series with SARS‐CoV‐2/FFM1 [3] (read-out: EC50 visual CPE) turned out to be 12 µM.

As for `CCC(CC)COC(=O)[C@H](C)N[P@](=O)(OC[C@H]1O[C@@](C#N)(c2ccc3c(N)ncnn23)[C@H](O)[C@@H]1O)Oc1ccccc1` [Remdesivir], the EC50 is 1.3 µM in the series with SARS‐CoV‐2/FFM1 [2] and 0.77 to 7.28 µM in the series on SARS‐CoV‐2 [4].

As to `CCN(CC)CCNC(=O)c1ccc(NS(C)(=O)=O)cc1` [Sematilide], the “antiviral activity in Caco‐2 cells” value with SARS‐CoV‐2/FFM1 [3] (Caco‐2 cells, SARS‐CoV‐2/FFM1) was “not active”. In the series with SARS‐CoV‐2/FFM1 [2], the EC50 was above 100 µM.
